In PubChem BioAssay AID1918991 (Molecular Pharmacology Branch, DTP, NCI, 2023):

Test system: 186277-243-T-J2-PDC complex spheroid growth
Test: Anticancer human tumor 186277-243-T-J2-PDC patient-derived colon adenocarcinoma cell line growth inhibition [AhR]
Conditions: for IC50: curve of first compound; for viability, T/C: stronger effect = lower value; active = viability on the fitted dose curve at most 10% of control; inactive = the rest
Outline: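 Spheroids combined tumor cells with HUVEC endothelial cells and human MSCs as stroma. AhR antagonists were paired with standard or investigational drugs, each dosed in half-log steps down from near clinical Cmax, or from 10 microM where Cmax was unknown.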

[1] = second compound 0.1 µM, first compound 0.00949 µM
[2] = second compound 0.1 µM, first compound 0.03 µM
[3] = second compound 0.1 µM, first compound 0.0949 µM
[4] = second compound 0.1 µM, first compound 0.3 µM
[5] = second compound 0.316 µM, first compound 0.00949 µM
[6] = second compound 0.316 µM, first compound 0.03 µM
[7] = second compound 0.316 µM, first compound 0.0949 µM
[8] = second compound 0.316 µM, first compound 0.3 µM
[9] = second compound 1 µM, first compound 0.00949 µM
[10] = second compound 1 µM, first compound 0.03 µM
[11] = second compound 1 µM, first compound 0.0949 µM
[12] = second compound 1 µM, first compound 0.3 µM
[13] = second compound 3.16 µM, first compound 0.00949 µM
[14] = second compound 3.16 µM, first compound 0.03 µM
[15] = second compound 3.16 µM, first compound 0.0949 µM
[16] = second compound 3.16 µM, first compound 0.3 µM
[17] = second compound 10 µM, first compound 0.00949 µM
[18] = second compound 10 µM, first compound 0.03 µM
[19] = second compound 10 µM, first compound 0.0949 µM
[20] = second compound 10 µM, first compound 0.3 µM
[21] = second compound 0.1 µM, first compound 0.0316 µM
[22] = second compound 0.1 µM, first compound 0.1 µM
[23] = second compound 0.1 µM, first compound 0.316 µM
[24] = second compound 0.1 µM, first compound 1 µM
[25] = second compound 0.1 µM, first compound 3.16 µM
[26] = second compound 0.1 µM, first compound 10 µM
[27] = second compound 0.316 µM, first compound 0.0316 µM
[28] = second compound 0.316 µM, first compound 0.1 µM
[29] = second compound 0.316 µM, first compound 0.316 µM
[30] = second compound 0.316 µM, first compound 1 µM
[31] = second compound 0.316 µM, first compound 3.16 µM
[32] = second compound 0.316 µM, first compound 10 µM
[33] = second compound 1 µM, first compound 0.0316 µM
[34] = second compound 1 µM, first compound 0.1 µM
[35] = second compound 1 µM, first compound 0.316 µM
[36] = second compound 1 µM, first compound 1 µM
[37] = second compound 1 µM, first compound 3.16 µM
[38] = second compound 1 µM, first compound 10 µM
[39] = second compound 3.16 µM, first compound 0.0316 µM
[40] = second compound 3.16 µM, first compound 0.1 µM
[41] = second compound 3.16 µM, first compound 0.316 µM
[42] = second compound 3.16 µM, first compound 1 µM
[43] = second compound 3.16 µM, first compound 3.16 µM
[44] = second compound 3.16 µM, first compound 10 µM
[45] = second compound 10 µM, first compound 0.0316 µM
[46] = second compound 10 µM, first compound 0.1 µM
[47] = second compound 10 µM, first compound 0.316 µM
[48] = second compound 10 µM, first compound 1 µM
[49] = second compound 10 µM, first compound 3.16 µM
[50] = second compound 10 µM, first compound 10 µM
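Note: spheroids exposed to compounds for seven days before the viability read.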
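Throughout, for viability, T/C: luminescent signal used as a stand-in for viable cell amount; 100% = DMSO vehicle control wells.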

O=C(C=Cn1cnc(-c2cc(C(F)(F)F)cc(C(F)(F)F)c2)n1)NNc1cnccn1 + CC(CO)NC(=O)c1cc(-c2ccc(Cl)cc2)nn(-c2cnn(C)c2)c1=O
active: viability, T/C (second compound 0.1 µM, first compound 0.949 µM) 3.75% | viability, T/C (second compound 0.1 µM, first compound 3 µM) 1.33% | viability, T/C [8] 12.6% | viability, T/C (second compound 0.316 µM, first compound 0.949 µM) 4.18% | viability, T/C (second compound 0.316 µM, first compound 3 µM) 1.56% | viability, T/C (second compound 1 µM, first compound 0.949 µM) 4.21% | viability, T/C (second compound 1 µM, first compound 3 µM) 1.3% | viability, T/C (second compound 3.16 µM, first compound 0.949 µM) 4.26% | viability, T/C (second compound 3.16 µM, first compound 3 µM) 2.11% | viability, T/C (second compound 10 µM, first compound 0.949 µM) 3.48% | viability, T/C (second compound 10 µM, first compound 3 µM) 2.03%
43.9 nM: IC50 (second compound 10 µM)
86.6 nM: IC50 (second compound 0.1 µM)
inactive: viability, T/C [1] 80.4% | viability, T/C [2] 78.3% | viability, T/C [3] 46.8% | viability, T/C [4] 13.1% | viability, T/C [5] 78% | viability, T/C [6] 83.5% | viability, T/C [7] 46.7% | viability, T/C [9] 83.3% | viability, T/C [10] 67.6% | viability, T/C [11] 46.9% | viability, T/C [12] 13.4% | viability, T/C [13] 67.8% | viability, T/C [14] 63.8% | viability, T/C [15] 46% | viability, T/C [16] 12.6% | viability, T/C [17] 62% | viability, T/C [18] 55% | viability, T/C [19] 38% | viability, T/C [20] 11.7%
73.2 nM: IC50 (second compound 1 µM)
72.9 nM: IC50 (second compound 3.16 µM)
89.2 nM: IC50 (second compound 0.316 µM)

COc1cccc2c1C(=O)c1c(O)c3c(c(O)c1C2=O)CC(O)(C(=O)CO)CC3OC1CC(N)C(O)C(C)O1 (stereo not given) + Cc1ccccc1N=Nc1ccc(NC(=O)c2ccnn2C)c(C)c1
440 nM: IC50 (second compound 10 µM)
446 nM: IC50 (second compound 0.316 µM)
active: viability, T/C [24] 4.6% | viability, T/C [25] 0.4% | viability, T/C [26] 0.61% | viability, T/C [30] 4.18% | viability, T/C [31] 0.3% | viability, T/C [32] 1.25% | viability, T/C [37] 0.42% | viability, T/C [38] 0.91% | viability, T/C [42] 3.91% | viability, T/C [43] 0.08% | viability, T/C [44] 1.27% | viability, T/C [48] 2.85% | viability, T/C [49] 0.25% | viability, T/C [50] 0.52%
487 nM: IC50 (second compound 1 µM)
inactive: viability, T/C [21] 158% | viability, T/C [22] 147% | viability, T/C [23] 71% | viability, T/C [27] 161% | viability, T/C [28] 138% | viability, T/C [29] 70% | viability, T/C [33] 161% | viability, T/C [34] 136% | viability, T/C [35] 77.1% | viability, T/C [36] 4.8% | viability, T/C [39] 152% | viability, T/C [40] 133% | viability, T/C [41] 72.9% | viability, T/C [45] 131% | viability, T/C [46] 120% | viability, T/C [47] 68.9%
463 nM: IC50 (second compound 3.16 µM)
456 nM: IC50 (second compound 0.1 µM)

NS(=O)(=O)OCC1CC(n2ccc3c(NC4CCc5ccccc54)ncnc32)CC1O (stereo not given) + Cc1cncc(-c2nc(NCCc3c[nH]c4ccccc34)c3ncn(C(C)C)c3n2)c1
563 nM: IC50 (second compound 0.316 µM)
492 nM: IC50 (second compound 1 µM)
active: viability, T/C [26] 3.87% | viability, T/C [31] 9.15% | viability, T/C [32] 3.24% | viability, T/C [37] 5.08% | viability, T/C [38] 2.62% | viability, T/C [43] 5% | viability, T/C [44] 2.12% | viability, T/C [48] 7.65% | viability, T/C [49] 2.02% | viability, T/C [50] 1.58%
365 nM: IC50 (second compound 3.16 µM)
41 nM: IC50 (second compound 10 µM)
693 nM: IC50 (second compound 0.1 µM)
inactive: viability, T/C [21] 114% | viability, T/C [22] 93.1% | viability, T/C [23] 80.4% | viability, T/C [24] 35.6% | viability, T/C [25] 13.2% | viability, T/C [27] 104% | viability, T/C [28] 96.2% | viability, T/C [29] 71.4% | viability, T/C [30] 28.6% | viability, T/C [33] 96% | viability, T/C [34] 89.8% | viability, T/C [35] 67.6% | viability, T/C [36] 22.2% | viability, T/C [39] 91.8% | viability, T/C [40] 86.8% | viability, T/C [41] 52.2% | viability, T/C [42] 21.3% | viability, T/C [45] 57.8% | viability, T/C [46] 24.4% | viability, T/C [47] 9.9%

CC(C)CC(NC(=O)C(Cc1ccccc1)NC(=O)c1cnccn1)B(O)O (stereo not given) + Cc1ccccc1N=Nc1ccc(NC(=O)c2ccnn2C)c(C)c1
16.8 nM: IC50 (second compound 0.316 µM)
active: viability, T/C [2] 2.71% | viability, T/C [3] 1.36% | viability, T/C [4] 0.12% | viability, T/C [6] 1.86% | viability, T/C [7] 0.39% | viability, T/C [8] 0.12% | viability, T/C [10] 1.95% | viability, T/C [11] 1.08% | viability, T/C [12] 0.12% | viability, T/C [14] 1.92% | viability, T/C [15] 0.77% | viability, T/C [16] 0.14% | viability, T/C [18] 3.12% | viability, T/C [19] 0.43% | viability, T/C [20] 0.21%
17.7 nM: IC50 (second compound 0.1 µM)
16.7 nM: IC50 (second compound 10 µM)
inactive: viability, T/C (second compound 0.1 µM, first compound 0.000949 µM) 101% | viability, T/C (second compound 0.1 µM, first compound 0.003 µM) 108% | viability, T/C [1] 109% | viability, T/C (second compound 0.316 µM, first compound 0.000949 µM) 104% | viability, T/C (second compound 0.316 µM, first compound 0.003 µM) 118% | viability, T/C [5] 97.3% | viability, T/C (second compound 1 µM, first compound 0.000949 µM) 99.8% | viability, T/C (second compound 1 µM, first compound 0.003 µM) 98.2% | viability, T/C [9] 91.5% | viability, T/C (second compound 3.16 µM, first compound 0.000949 µM) 104% | viability, T/C (second compound 3.16 µM, first compound 0.003 µM) 95.4% | viability, T/C [13] 89.1% | viability, T/C (second compound 10 µM, first compound 0.000949 µM) 96% | viability, T/C (second compound 10 µM, first compound 0.003 µM) 90.1% | viability, T/C [17] 98.6%
16.2 nM: IC50 (second compound 1 µM)
15.9 nM: IC50 (second compound 3.16 µM)

O=C(c1cc(Cc2n[nH]c(=O)c3ccccc23)ccc1F)N1CCN(C(=O)C2CC2)CC1 + Cc1ccccc1N=Nc1ccc(NC(=O)c2ccnn2C)c(C)c1
inactive: viability, T/C [21] 102% | viability, T/C [22] 95.4% | viability, T/C [23] 95.5% | viability, T/C [24] 101% | viability, T/C [25] 99.2% | viability, T/C [26] 123% | viability, T/C [27] 94% | viability, T/C [28] 111% | viability, T/C [29] 97.5% | viability, T/C [30] 101% | viability, T/C [31] 100% | viability, T/C [32] 127% | viability, T/C [33] 105% | viability, T/C [34] 87.3% | viability, T/C [35] 110% | viability, T/C [36] 95.1% | viability, T/C [37] 113% | viability, T/C [38] 127% | viability, T/C [39] 109% | viability, T/C [40] 96.5% | viability, T/C [41] 104% | viability, T/C [42] 101% | viability, T/C [43] 106% | viability, T/C [44] 111% | viability, T/C [45] 85.6% | viability, T/C [46] 86.1% | viability, T/C [47] 101% | viability, T/C [48] 93.3% | viability, T/C [49] 93.6% | viability, T/C [50] 91.6%
> 10000 nM: IC50 (second compound 0.1 µM) | IC50 (second compound 0.316 µM) | IC50 (second compound 1 µM) | IC50 (second compound 3.16 µM) | IC50 (second compound 10 µM)
